“Also recorded” adds a separate entry of the source.
Assays:
[1] = test system: MCF7, A549, HeLa, LnCap cancer cell lines; assay: anti-proliferative activity against cancer cell lines, 96 hr; format: cell-based; settings: every type of cancer tested: brain, breast, lung epithelial, cervical, prostate cancer cell lines
Description: Cell proliferation was measured and EC50 values were estimated.

C6 glioma = assay: in vivo rat model: C6 glioma cells injected into brain, treatment by osmotic mini pump; settings: rat hippocampus, 7 days treatment
Excerpt: Approximately 5×10^4 C6 glioma cells were transplanted into a rat brain via a cannula followed by treatment for seven days. Tumor cells are depicted by staining for beta galactosidase.
FIG. 2 is a graph depicting the maximum extent of tumor in a single section.
A rat model system was developed to examine the in vivo efficacy of the compounds of the present invention.
The first step was to produce a cell line with a marker gene. A rat C6 glioma cell line was selected and stably transfected with a β-galactosidase construct. These cells were cultured and prepared for injection into the brain of adult Sprague-Dawley rats to simulate in vivo tumor development.
The animals were anesthetized and a cannula was placed into the brain. Approximately 5×10^4 glioma cells were injected through the cannula. […] The mini osmotic pump delivered 1 μl/hr for 7 days. With the tubing used to connect the pump, there was approximately a 10 hour delay for the treatment to reach the brain.
The section with the largest extent of tumor visible in all of the cases was identified and the cross-sectional area of the tumor was measured.

C6 rat glioma = assay: differential culture cytotoxicity assay, C6 glioma; settings: comparison of IC50 values
Description: Normal cultured rat astrocytes and C6 rat glioma were used as a differential screen for a variety of 1,2,3,4-tetrahydroisoquinoline derivatives. […] To explore structure activity relationships (SAR) a number of 1,2,3,4-tetrahydroisoquinolines 2, 4, 5, 7, and 8 were synthesized and tested for antiglioma activity.
The astrocytes primary culture was derived from neonatal (4-8 days postpartum) rat pups as described by Geisert et al. The primary cultures were prepared as per McCarthy et al. Briefly, the rat pups were anesthetized on ice, decapitated, and the brains were removed. The cerebral cortex was removed, stripped of the meninges, and cut into small pieces of approximately 1 mm^2. The tissue was placed in 0.1% trypsin for 15 min and gently pipetted to produce a single cell suspension. The cell suspension was then rinsed in media and transferred to culture flasks. […]
The experimental treatment was the incubation of the cells with test compound for 96 h at 37° C., 5% CO2. The cells were fixed with 4% formaldehyde, stained with 0.1% cresylecth violet stain, and quantitated as per Wagner et a. […]
The cytotoxic character of each compound was reported as the percent survival, calculated as the average A560 for treated cells divided by A560 of untreated (negative control) cells, and expressed as a percentage. […]

[2] = test system: primary cultured cortical astrocytes; assay: effect on primary cultured cortical astrocytes (Example 5); settings: at EC50 concentrations for the C6 gliomas
[3] = animal toxicity test, delivery into striatum by mini-osmotic pump; format: in vivo, rat; settings: 5 μM into striatum, five days, Nissl stain; hydrochloride
Description: The drug was delivered directly into the striatum of rats at a concentration of 5 μM, two times greater than the estimated EC50 value. […] The rats were sacrificed, brain sections were investigated for any major tissue change in the brain. Brains were fixed in 4% paraformaldehyde, cut in sections and stained by the Nissl method.
The drug was administered into the striatum of rats at 5 μM, which is approximately two times greater than the estimated EC5) value. […] The rats were sacrificed and brain sections were investigated for any major tissue change in the brain. Brains were fixed in 4% paraformaldehyde, cut in sections, and stained by the Nissl method.

SMILES: Cl.Oc1cc2c(cc1O)C(Cc1ccc(-c3ccccc3)cc1)NCC2 (racemic) [MMGS-155]
- LD50, killing of cancer cells in culture [1]: approximately 3 μM
- pathology of normal brain tissue beneath treatment cannula (C6 glioma): Limited pathology
- cytotoxic activity relative to another compound (C6 rat glioma; listed as 1, hydrochloride): more potent; also recorded: at least two-fold higher potency
- cytotoxic activity relative to another compound (C6 rat glioma; listed as 1-(biphenyl-4-ylmethyl)-1,2,3,4-tetrahydroisoquinoline-6,7-diol, hydrochloride): increased relative potency
- destruction to astrocytes [2]: only minimal destruction to astrocytes
- brain damage / tissue change [3]: did not show any sign of brain damage; also recorded: brain tissue appears normal
